ChEMBL document CHEMBL5625259, “Direct-to-biology platform: From synthesis to biological evaluation of SHP2 allosteric inhibitors” (Bioorg Med Chem Lett, 2024)

Target: T1, Tyrosine-protein phosphatase non-receptor type 11 (Homo sapiens, UniProt Q06124)
T1 sequence (Q06124 whole entry): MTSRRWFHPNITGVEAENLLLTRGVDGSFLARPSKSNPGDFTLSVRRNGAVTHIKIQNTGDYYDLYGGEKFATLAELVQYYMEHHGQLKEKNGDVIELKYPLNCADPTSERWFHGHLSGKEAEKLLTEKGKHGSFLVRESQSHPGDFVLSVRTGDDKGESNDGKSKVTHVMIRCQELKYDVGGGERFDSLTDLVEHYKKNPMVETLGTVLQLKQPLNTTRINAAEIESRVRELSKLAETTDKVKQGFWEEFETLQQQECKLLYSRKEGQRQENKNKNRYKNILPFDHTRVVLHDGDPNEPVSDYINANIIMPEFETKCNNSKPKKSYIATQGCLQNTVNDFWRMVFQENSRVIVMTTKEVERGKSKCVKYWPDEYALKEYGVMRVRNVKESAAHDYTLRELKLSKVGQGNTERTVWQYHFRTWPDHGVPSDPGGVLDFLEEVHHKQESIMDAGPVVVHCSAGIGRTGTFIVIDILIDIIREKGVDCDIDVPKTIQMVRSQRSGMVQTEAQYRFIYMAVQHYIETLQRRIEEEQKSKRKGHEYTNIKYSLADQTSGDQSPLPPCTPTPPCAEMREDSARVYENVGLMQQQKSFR
Assay: Allosteric inhibition of wild type SHP2 (unknown origin) assessed as dephosphorylation of DIFMUP by fluorescence based envision microplate reader analysis

IC50: > 3.2 µM
SMILES: FC(F)(F)c1ncccc1Sc1cnc2[nH]c(N3CCCC4(CNCCO4)C3)nc2n1 (stereo unspecified)
